# Target: VEGFR2 (KDR) (Homo sapiens, UniProt P35968)
# Test: ADP-Glo kinase assay with purified KDR (Promega V2681), […] ATP
# Type: biochemical
# Sequence of VEGFR2 (KDR) (P35968 20-1356): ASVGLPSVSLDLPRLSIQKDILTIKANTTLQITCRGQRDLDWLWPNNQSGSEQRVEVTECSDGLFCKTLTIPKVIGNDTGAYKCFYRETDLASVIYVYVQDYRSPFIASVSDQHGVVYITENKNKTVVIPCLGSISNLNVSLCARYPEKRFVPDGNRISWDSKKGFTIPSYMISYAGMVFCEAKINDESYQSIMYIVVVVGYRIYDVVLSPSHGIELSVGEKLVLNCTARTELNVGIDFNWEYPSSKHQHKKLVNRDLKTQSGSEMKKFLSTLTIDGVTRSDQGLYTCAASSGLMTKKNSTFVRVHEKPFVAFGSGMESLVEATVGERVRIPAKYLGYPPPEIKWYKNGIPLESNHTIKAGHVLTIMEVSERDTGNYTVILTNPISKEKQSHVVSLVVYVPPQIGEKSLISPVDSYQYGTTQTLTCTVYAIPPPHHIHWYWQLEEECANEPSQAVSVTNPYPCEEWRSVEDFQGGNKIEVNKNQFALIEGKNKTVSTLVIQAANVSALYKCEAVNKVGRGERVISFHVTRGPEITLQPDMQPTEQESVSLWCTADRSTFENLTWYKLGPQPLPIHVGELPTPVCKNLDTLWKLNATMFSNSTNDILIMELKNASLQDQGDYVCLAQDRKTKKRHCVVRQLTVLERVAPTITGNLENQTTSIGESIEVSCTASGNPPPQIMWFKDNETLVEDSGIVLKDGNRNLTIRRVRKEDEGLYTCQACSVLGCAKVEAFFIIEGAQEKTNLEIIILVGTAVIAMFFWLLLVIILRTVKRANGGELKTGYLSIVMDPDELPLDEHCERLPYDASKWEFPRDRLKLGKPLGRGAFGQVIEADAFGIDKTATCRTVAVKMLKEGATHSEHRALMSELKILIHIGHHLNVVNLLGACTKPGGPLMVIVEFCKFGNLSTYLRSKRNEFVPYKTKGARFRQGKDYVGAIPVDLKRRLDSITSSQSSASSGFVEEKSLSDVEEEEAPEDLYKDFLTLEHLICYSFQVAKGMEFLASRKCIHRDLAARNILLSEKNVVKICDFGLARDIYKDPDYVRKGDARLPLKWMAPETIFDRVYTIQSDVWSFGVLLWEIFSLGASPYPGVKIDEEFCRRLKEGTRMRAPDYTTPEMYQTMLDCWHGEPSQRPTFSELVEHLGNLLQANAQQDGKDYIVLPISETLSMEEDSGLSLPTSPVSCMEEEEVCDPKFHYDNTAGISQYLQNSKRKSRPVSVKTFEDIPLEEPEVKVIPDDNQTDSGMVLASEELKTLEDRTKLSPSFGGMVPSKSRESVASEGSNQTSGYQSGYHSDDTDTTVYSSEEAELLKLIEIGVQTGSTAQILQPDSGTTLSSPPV
smiles,measurement,value
"C[C@H]1[C@H](C)CC[C@]2(C(=O)O)CC[C@]3(C)C(=CC[C@@H]4[C@@]5(C)C[C@@H](O)[C@H](O)C(C)(C)[C@@H]5CC[C@]43C)[C@H]12 [CA, corosolic acid]",IC50,950 nM

# — PMC4433267, “Corosolic Acid Inhibits Hepatocellular Carcinoma Cell Migration by Targeting the VEGFR2/Src/FAK Pathway” (PLoS ONE, 2015)
